Measurements as given in patent EP2601963B1, “N-ISOVALEROYL-L-GLUTAMYL-L-TRYPTOPHAN AS AN AGENT INHIBITING THE FORMATION OF ULCERS IN THE STOMACH AND THE DUODENUM” (Obshestvo S Ogranichennoj Otvetstvennostju "CytoNIR", priority 2010, dated 2015).

How the values were obtained:
[1] = test system: indomethacin-induced ulcers; experiment: Indomethacin-induced ulcer model, therapeutic treatment: healing of gastric lesions; format: in vivo, male Wistar rats; design: key to gastroprotective activity (first value, GA1) / GA1 (gastroprotective activity calculated for number of lesions): GA1 = PI of control group / PI of experimental group; key to gastroprotective activity (second value, GA2): GA2 = UI of control group / UI of experimental group; key to Ulcer Index: UI = average lesion area in group × % animals with lesions / 100; Lesion Size: unit not given here
Description: (§1) All studies were conducted on male Wistar rats weighing 220 ± 20 g, obtained from Rappolovo nursery (Leningrad oblast). For 14 days prior to the experiment, the animals were held in isolation. The animals were handled in accordance with the European Convention for the Protection of Vertebrate Animals used for Experimental and Other Scientific Purposes (Strasburg, 1986). The animals were held in standard plastic cages and fed a standard diet of PK120-3 (granulated feed in accordance with order # 1179 M3 USSR 10/10/1983) with a free access to water.
(§2) Animals' body weight changes were monitored throughout the experiment. The experimental animals were then sacrificed by decapitation, and their blood was collected in test tubes. The stomachs were extracted, dissected along the major curve, rinsed with cold saline solution, and the mucosa was carefully examined through a magnifying glass under bright lights. The mucosa was inspected for color, the presence of hyperemia and its intensity. The number of lesions, which were differentiated into small round (less than 1 mm), linear, and large lesions (more than 1mm) and the size of the area they covered were calculated. The average number of lesions per one animal in a group and the percentage of animals with ulcers were also calculated. Pauls Index (PI) was used as an integral indicator of the number of lesions and was calculated as follows: • PI = average number of lesions in a group x % of animals with lesions/100 [Pauls F., Wick A.M.,Mac. Key E.M. et al. An assau method for anti ulcer substances // Gastroenterology.- 1947. #8.- p.p.774 - 782]. Ulcer index UI was calculated as: UI = average lesion area size in the group x % of animals with lesions/100; gastroprotective activity GA1 was calculated as: GA1 = PI of the control group/PI of the experimental group, GA2 = UI of the control group/UI of the experimental group.
Five groups of 10 animals per group were prepared for the experiment as described in Example 1.
In each series of the experiments, the animals were divided into experimental and control groups at 10 animals per group. The proposed medication or a comparator drug were orally administered to the animals in the experimental group, and the control animals were given distilled water in the same amount. • control group received distilled water per os; • experimental group 1 received 0.1 mkg/kg isovaleroyl glutamyl tryptophan; • experimental group 2 received 10 mkg/kg isovaleroyl glutamyl tryptophan; • experimental group 3 received 200 mkg/kg of the comparator drug Sucralfate.
2 ml/kg of the ulcerogenic dose of indomethacin equal to 30 mg/kg was administered intraperitoneally. The treatment started 24 hrs. post indomethacin administration and continued for 5 days. The animals in the experimental groups received N-isovaleroyl-L-glutamyl-L-tryptophan or the comparator drug Sucralfate, and the control group received distilled water.

[2] = test system: stress-induced gastric ulcers; experiment: Water-immersion stress model: gastric lesions, preventive treatment; format: in vivo, male Wistar rats; design: key to GA1 (gastroprotective activity calculated for number of lesions): GA1 = PI of control group / PI of treated group; key to GA2 (gastroprotective activity calculated for lesion size): GA2 = UI of control group / UI of treated group; key to Pauls Index: PI = mean lesions per group × % animals with lesions / 100; key to Ulcer Index: UI = mean lesion area in group × % animals with lesions / 100
Description: as §1
In each series, the animals were divided into experimental and control groups with 10 rats per group. The animals in the experimental groups were orally administered the claimed preparation or a comparator drug, and the control group animals received distilled water in the same amount.
The experimental animals were divided into 5 groups, 10 animals each. The animals received the following therapy: • control group received distilled water per os; • experimental group 1 received 0.1 mkg/kg N-isovaleroyl-L-glutamyl-L-tryptophan; • experimental group 2 received 10 mkg/kg N-isovaleroyl-L-glutamyl-L-tryptophan; • experimental group 3 received 200 mkg/kg of the comparator drug Sucralfate; • experimental group 4 received 50 mkg/kg of the comparator drug Misoprostol;
The experiment was conducted as follows: • The proposed drug, comparator drugs, and distilled water were administered once daily over 7 days, and on the day of the ulcerogenic stress induction one hour prior to the stress.
The rats deprived of food for 18 hrs. were placed into special cases and immersed in water vertically to the level of their xyphoids. The animals were held in this position for 5 hrs. at 23° C water temperature. After that, the animals were removed from the experiment.
as §2, with “group. The proposed drug was considered active when GA ≥ 2.” for “group.”

[3] = 0.1 mkg/kg, treatment after Indomethacin
[4] = Indomethacin 30 mg/kg + 10 mkg/kg, treatment 5 days

N-isovaleroyl-L-glutamyl-L-tryptophan [VGT preparation]
gastroprotective activity (first value, GA1) [1, 3]: 2 | gastroprotective activity (second value, GA2) [1, 3]: 2.6 | # Lesions [1, 4]: 6.2 ± 1.3 | % Animals with Ulcers [1, 4]: 100% | GA1 (gastroprotective activity calculated for number of lesions) [1, 4]: 1.4 | Lesion Size [1, 4]: 23.6 ± 6.1 | PI [1, 4]: 6.2 | Ulcer Index [1, 4]: 23.6 | # Lesions ([2]; 0.1 mkg/kg + stress): 15.4 ± 2.1 | % Animals with Ulcers ([2]; 0.1 mkg/kg + stress): 90% | GA1 (gastroprotective activity calculated for number of lesions) ([2]; 0.1 mkg/kg + stress): 1.59 | GA2 (gastroprotective activity calculated for lesion size) ([2]; 0.1 mkg/kg + stress): 2.58 | Large round Amt. ([2]; 0.1 mkg/kg + stress): 6.9 ± 1.4 | Large round Size ([2]; 0.1 mkg/kg + stress): 4.4 ± 1.1 | Lesion Size ([2]; 0.1 mkg/kg + stress): 8.7 ± 2.0 | Linear Amt. ([2]; 0.1 mkg/kg + stress): 1.5 ± 0.7 | Linear Size ([2]; 0.1 mkg/kg + stress): 2.4 ± 1.0 | Pauls Index ([2]; 0.1 mkg/kg + stress): 13.9 | Small round Amt. ([2]; 0.1 mkg/kg + stress): 7.0 ± 1.4 | Small round Size ([2]; 0.1 mkg/kg + stress): 1.9 ± 0.4 | Total Amt. ([2]; 0.1 mkg/kg + stress): 15.4 ± 2.1 | Total Size ([2]; 0.1 mkg/kg + stress): 8.7 ± 2.0 | Ulcer Index ([2]; 0.1 mkg/kg + stress): 7.83 | # Lesions ([2]; 10 mkg/kg + stress): 16.3 ± 1.5 | % Animals with Ulcers ([2]; 10 mkg/kg + stress): 100% | GA1 (gastroprotective activity calculated for number of lesions) ([2]; 10 mkg/kg + stress): 1.36 | GA2 (gastroprotective activity calculated for lesion size) ([2]; 10 mkg/kg + stress): 2.08 | Lesion Size ([2]; 10 mkg/kg + stress): 9.7 ± 1.2 | Pauls Index ([2]; 10 mkg/kg + stress): 16.3 | Ulcer Index ([2]; 10 mkg/kg + stress): 9.7 | Large round Amt. ([2]; 10.0 mkg/kg + stress): 5.7 ± 1.1 | Large round Size ([2]; 10.0 mkg/kg + stress): 3.4 ± 0.7 | Linear Amt. ([2]; 10.0 mkg/kg + stress): 1.4 ± 0.3 | Linear Size ([2]; 10.0 mkg/kg + stress): 3.9 ± 1.4 | Small round Amt. ([2]; 10.0 mkg/kg + stress): 9.2 ± 1.5 | Small round Size ([2]; 10.0 mkg/kg + stress): 2.5 ± 0.4 | Total Amt. ([2]; 10.0 mkg/kg + stress): 16.3 ± 1.5 | Total Size ([2]; 10.0 mkg/kg + stress): 9.7 ± 1.2 | size of lesions smaller than in the control group animals ([2]; stress, both doses): 2.1 - 2.6 times | reduced the size of large lesions ([2]; stress, depending on the dose (0.1 mkg/kg by Table 1)): 2.7 times | reduced the size of large lesions ([2]; stress, depending on the dose (10 mkg/kg by Table 1)): 3.4 times
